Experimental data from US9023370B2, “Conjugates comprising nanoparticles coated with platinum containing compounds” (priority 2008, dated 2015).

Assays:
A549 tumor cells = assay: MTT assay of the conjugates in tumoral cells; assay type: cell-based, human; settings: 48 h
Experimental: Cells were plated in a multiwell-96 plate (Iwaki) at 4×10^3 cells/well and 24 hours later the medium was changed for treatments. Tetrazolium salt 3-(4,5-dimethylthiazol-2-yl)-2,5-diphenyltetrazoliumbromide (MTT, Acros Organics) was used for mitochondrial activity evaluation in cell viability studies 24 and 48 hours post-treatments. Plates were measured in MicroPlate Reader Model 550 (BIO-RAD) and data were processed with Excel and SPSS software. Using absorbance measurements [time zero, (Az), control growth, (C), and test growth in the presence of drug at the various concentration levels (Ai)], the percentage growth was calculated at each of the drug concentration levels. The assays were done with three cellular cancer lines: HeLa, A549 and HEK.
A and G represent the control values at 0 and 48 h respectively.

[1] = Zeta potential of nanoparticles and conjugates; assay type: physicochemical; settings: pH 7.0
Experimental: The zeta potential of nanoparticles and conjugates was determined using a Malvern ZetaSizer Analyzer (Malvern Instruments, UK). These measurements were performed with control of the pH (7.0).

A549 lung tumoral cells = assay: Animal assay: tumour size; assay type: in vivo; settings: SCID mice, A549 flank tumours, fifteen days; cisplatin 30 mg per Kg; example 4.1 100 ml of 1.9 mg platinum drug per litre, one intra-peritoneal dose
Experimental: (§1) Fifteen SCID mice were choosen for the in vivo experiment. Mouse were injected 20 106 A549 lung tumoral cells in their flanks. Three random groups of five mice each were prepared. Then we waited until the tumour grew to an easily measurable size. The first group (A) was given no treatment. The second group (B) was given mild doses of commercial cisplatin (30 mg per Kg animal weight). The third group (C) was treated with the conjugates of example 4.1 with […] of 1.9 mg of platinum drug per litre in one intra-peritoneal dose. Tumour size (as a sign of therapeutical success) and animal weight (as a sign of secondary effects) were measured every three days. After fifteen days the experiments were stopped.

[2] = design: species or system SCID mice; settings: mouse, in vivo
Experimental: as §1

[3] = Stability: platinum drug release after incubation, quantified by ICP-MS; assay type: physicochemical; settings: 48 h incubation with cellular medium at 37° C.
Experimental: The stability of these conjugates was compared with the stability of the conjugates of the invention. […] The stability tests were based on inductively coupled plasma mass spectroscopy ICP-MS quantifications of platinum drug release after incubation of both systems.

Compound: AuNP(NP:13 nm)-MUA [example 2.1]
- effect on A549 lung tumoral cells viability (MTT) (A549 tumor cells): did not elicit any response
- ζ-potential [1]: −65.8 mV

Compound: N.N.O.O.O=[N+]([O-])[O-].O=[N+]([O-])[O-].[Pt+2] [example 3, cis-[Pt(NH3)2(H2O)2](NO3)2]
- effect on A549 lung tumoral cells viability (MTT) (A549 tumor cells): did not elicit any response

Compound: N.N.[Cl][Pt][Cl] [commercial cisplatin, cisplatin, reference compound]
- tumour size (A549 lung tumoral cells): reduction of tumour size
- animal weight (sign of secondary effects) [2]: loose of body weight
- kidney and hepatic dysfunction (preliminary biochemical measurements) [2]: did not indicate any kidney and hepatic significant dysfunction

Compound: AuNP(NP:4 nm)-MUA-cisplatin [example 5, reference compound]
- release of platinum drug from the nanoparticle [3]: release of platinum drug from the nanoparticle was only observed
